Results published in US20130090303A1, “Agonists of PY2Y Receptor as a Treatment for Aortic Stenosis and Cardiovascular Calcification” (UNIVERSITE LAVAL, priority 2011, published 2013).

How the values were obtained:
Runx2, osteocalcin = assay: Real-time PCR expression of Runx2 and osteocalcin in isolated VICs; format: cell-based, Human; conditions: q-PCR normalized to HPRT, FIG. 2C
Description: RNA was also extracted from AS valves and cells during in vitro experiments. Total RNA was isolated with RNeasy micro kit from Qiagen (Qiagen, Mississauga, Ont, Canada). The RNA extraction protocol was performed according to manufacturer's instructions using 100 mg of tissue. The quality of total RNA was monitored by capillary electrophoresis (Experion, Biorad, Mississauga, Ont, Canada). Four (4) μg of RNA was reverse transcribed using the Quantitec Reverse Transcription Kit from Qiagen. Quantitative real-time PCR (q-PCR) was performed with Quantitec SYBR Green PCR kit from Qiagen in the Rotor-Gene 6000 system (Corbett Robotics Inc, San Francisco, Calif., USA). The following primers were obtained from (Invitrogen, Burlington, Ont, Canada): P2Y2, Runx2, osteocalcin. The expression of hypoxanthine-guanine phosphoribosyltransferase (HPRT) (Invitrogen, Burlington, On, Canada) as a reference gene was chosen to normalize the results.
(§1) Human valve interstitial cells (VICs) were isolated by collagenase digestion. To provoke calcification, cells were incubated for 7 days with a pro-calcifying medium containing: DMEM+5% FBS, 10^−7 M insulin, 50 μg /ml ascorbic acid and NaH2PO4 at 2 mM.

[1] = tested on: valve interstitial cells (VICs); assay: In vitro calcification of isolated valve interstitial cells (calcium by Arsenazo III method); format: cell-based; conditions: isolated human VICs, pro-calcifying medium 7 days; FIG. 2A/2B
Description: In isolated cells, calcium was measured by the Arsenazo III method (Côte N, et al. J Mol Cell Cardiol 2012;52:1191-202) and results reported as percent changes.
as §1

Structure (SMILES): O=c1ccn([C@@H]2O[C@H](COP(=O)(O)OP(=O)(O)OP(=O)(O)O)[C@@H](O)[C@H]2O)c(=S)[nH]1 [2-thioUTP]
- expression of osteocalcin (Runx2, osteocalcin): decreased the expression
- expression of the bone transcription factor, Runx2 (Runx2, osteocalcin): decreased the expression
- calcification of isolated VICs [1]: reduced significantly calcification

Structure (SMILES): Cc1ccc(C(=O)Nc2ccc(S(=O)(=O)O)c3cc(S(=O)(=O)O)cc(S(=O)(=O)O)c23)cc1NC(=O)c1cccc(NC(=O)Nc2cccc(C(=O)Nc3cc(C(=O)Nc4ccc(S(=O)(=O)O)c5cc(S(=O)(=O)O)cc(S(=O)(=O)O)c45)ccc3C)c2)c1 [suramin]
- calcification of isolated VICs [1]: increased calcification
